Test results from patent US20060241172A1, “Benzodioxane and benzodioxolane derivatives and uses thereof” (Wyeth, priority 2005, published 2006).

Tests used:
[1] = target: T1, human 5-hydroxytryptamine-2C (h5-HT2C) receptor (Homo sapiens, UniProt P28335); experiment: 5-HT2C binding: [125I]DOI displacement in membranes of transfected CHO cells; settings: read-out: 5-HT2C Binding Ki avg
T1 construct: expressed in transfected cells; host or cells: CHO (Chinese Hamster Ovary) cells; membranes
T1 sequence (P28335 33-458): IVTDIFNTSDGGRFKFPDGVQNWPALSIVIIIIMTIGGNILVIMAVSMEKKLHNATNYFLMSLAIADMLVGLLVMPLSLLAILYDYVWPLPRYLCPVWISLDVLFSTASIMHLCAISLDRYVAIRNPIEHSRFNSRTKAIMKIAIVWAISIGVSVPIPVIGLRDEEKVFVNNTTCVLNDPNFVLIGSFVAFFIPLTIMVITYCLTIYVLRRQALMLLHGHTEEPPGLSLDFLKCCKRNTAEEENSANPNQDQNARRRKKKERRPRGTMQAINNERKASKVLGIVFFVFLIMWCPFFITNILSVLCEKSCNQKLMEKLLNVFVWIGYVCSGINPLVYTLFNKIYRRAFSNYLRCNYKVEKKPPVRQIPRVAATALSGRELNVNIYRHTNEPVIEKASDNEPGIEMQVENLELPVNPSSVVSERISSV

human 5-HT2C receptor = target: T2, human 5-HT2C receptor (Homo sapiens, UniProt P28335); experiment: 5-HT2C receptor-stimulated calcium mobilization (FLIPR) in CHO cells; assay type: cell-based; settings: for Emax: CHO, read-out: 5-HT2C Function EMax (%); for EC50: read-out: 5-HT2C Function EC50
T2 sequence (P28335 33-458): T1 sequence (P28335 33-458)

## CNCC1COc2cccc(-c3ccccc3OC)c2O1 (stereo not drawn) [Compound I-19, {[8-(2-Methoxyphenyl)-2,3-dihydro-1,4-benzodioxin-2-yl]methyl}methylamine]
[1]
  Ki: > 200 nM
Human 5-HT2C receptor
  Emax: 20%
  EC50: 100 to 500 nM

## CNCC1COc2cccc(-c3ccccc3C(F)(F)F)c2O1 (stereo not drawn) [Compound I-20, N-Methyl-1-{8-[2-(trifluoromethyl)phenyl]-2,3-dihydro-1,4-benzodioxin-2-yl}methanamine]
[1]
  Ki: 50 to 200 nM
Human 5-HT2C receptor
  Emax: 40%
  EC50: > 500 nM

## CNCC1COc2cccc(-c3ccccc3Cl)c2O1 (stereo not drawn) [Compound I-21, {[8-(2-Chlorophenyl)-2,3-dihydro-1,4-benzodioxin-2-yl]methyl}methylamine]
[1]
  Ki: < 50 nM
Human 5-HT2C receptor
  Emax: 40%
  EC50: < 100 nM

## CNCC1COc2cccc(-c3cccc(OC)c3OC)c2O1 (stereo not drawn) [Compound I-30, {[8-(2,3-Dimethoxyphenyl)-2,3-dihydro-1,4-benzodioxin-2-yl]methyl}methylamine]
[1]
  Ki: 50 to 200 nM
Human 5-HT2C receptor
  EC50: > 500 nM

## CNCC1COc2cccc(-c3cc(Cl)ccc3OC)c2O1 (stereo not drawn) [Compound I-31, {[8-(5-Chloro-2-methoxyphenyl)-2,3-dihydro-1,4-benzodioxin-2-yl]methyl}methylamine]
[1]
  Ki: > 200 nM
Human 5-HT2C receptor
  Emax: 20%
  EC50: 100 to 500 nM

## CCNCC1COc2cccc(-c3ccc(Cl)cc3Cl)c2O1 (stereo not drawn) [Compound I-33, N-{[8-(2,4-Dichlorophenyl)-2,3-dihydro-1,4-benzodioxin-2-yl]methyl}ethanamine]
[1]
  Ki: 50 to 200 nM
Human 5-HT2C receptor
  Emax: 30%
  EC50: > 500 nM

## CCCNCC1COc2cccc(-c3ccc(Cl)cc3Cl)c2O1 (stereo not drawn) [Compound I-35, N-{[8-(2,4-Dichlorophenyl)-2,3-dihydro-1,4-benzodioxin-2-yl]methyl}propan-1-amine]
[1]
  Ki: 50 to 200 nM
Human 5-HT2C receptor
  EC50: > 500 nM

## CC(C)NCC1COc2cccc(-c3ccccc3Cl)c2O1 (stereo not drawn) [Compound I-36, N-{[8-(2-Chlorophenyl)-2,3-dihydro-1,4-benzodioxin-2-yl]methyl}propan-2-amine]
[1]
  Ki: > 200 nM
Human 5-HT2C receptor
  EC50: > 500 nM

## CC(C)NCC1COc2cccc(-c3ccc(Cl)cc3Cl)c2O1 (stereo not drawn) [Compound I-37, N-{[8-(2,4-Dichlorophenyl)-2,3-dihydro-1,4-benzodioxin-2-yl]methyl}propan-2-amine]
[1]
  Ki: > 200 nM
Human 5-HT2C receptor
  Emax: 20%
  EC50: > 500 nM

## CN(C)CC1COc2cccc(-c3ccccc3Cl)c2O1 (stereo not drawn) [Compound I-38, {[8-(2-Chlorophenyl)-2,3-dihydro-1,4-benzodioxin-2-yl]methyl}dimethylamine]
[1]
  Ki: < 50 nM
Human 5-HT2C receptor
  Emax: 30%
  EC50: 100 to 500 nM

## CN(C)CC1COc2cccc(-c3ccc(Cl)cc3Cl)c2O1 (stereo not drawn) [Compound I-39, {[8-(2,4-Dichlorophenyl)-2,3-dihydro-1,4-benzodioxin-2-yl]methyl}dimethylamine]
[1]
  Ki: < 50 nM
Human 5-HT2C receptor
  Emax: 20%
  EC50: 100 to 500 nM

## C=CCNCC1COc2cccc(-c3ccc(Cl)cc3Cl)c2O1 (stereo not drawn) [Compound I-40, N-{[8-(2,4-Dichlorophenyl)-2,3-dihydro-1,4-benzodioxin-2-yl]methyl}prop-2-en-1-amine]
[1]
  Ki: > 200 nM
Human 5-HT2C receptor
  Emax: 30%
  EC50: > 500 nM

## Clc1ccccc1-c1cccc2c1OC(CNCC1CC1)CO2 (stereo not drawn) [Compound I-41, {[8-(2-Chlorophenyl)-2,3-dihydro-1,4-benzodioxin-2-yl]methyl}(cyclopropylmethyl)-amine]
[1]
  Ki: 50 to 200 nM
Human 5-HT2C receptor
  Emax: 20%
  EC50: > 500 nM

## Clc1ccc(-c2cccc3c2OC(CNCC2CC2)CO3)c(Cl)c1 (stereo not drawn) [Compound I-42, (Cyclopropylmethyl) {[8-(2,4-dichlorophenyl)-2,3-dihydro-1,4-benzodioxin-2-yl]methyl}amine]
[1]
  Ki: > 200 nM
Human 5-HT2C receptor
  EC50: > 500 nM

## Clc1ccccc1-c1cccc2c1OC(CNC1CC1)CO2 (stereo not drawn) [Compound I-43, N-{[8-(2-Chlorophenyl)-2,3-dihydro-1,4-benzodioxin-2yl]methyl}cyclopropanamine]
[1]
  Ki: > 200 nM
Human 5-HT2C receptor
  Emax: 30%
  EC50: > 500 nM

## Clc1ccc(-c2cccc3c2OC(CNC2CC2)CO3)c(Cl)c1 (stereo not drawn) [Compound I-44, N-{[8-(2,4-Dichlorophenyl)-2,3-dihydro-1,4-benzodioxin-2-yl]methyl}cyclopropanamine]
[1]
  Ki: 50 to 200 nM
Human 5-HT2C receptor
  EC50: > 500 nM

## Clc1ccc(-c2cccc3c2OC(CNC2CCC2)CO3)c(Cl)c1 (stereo not drawn) [Compound I-45, N-{[8-(2,4-Dichlorophenyl)-2,3-dihydro-1,4-benzodioxin-2-yl]methyl}cyclobutanamine]
[1]
  Ki: > 200 nM
Human 5-HT2C receptor
  Emax: 30%
  EC50: > 500 nM

## NC[C@H]1COc2cc(F)cc(-c3c(Cl)cccc3Cl)c2O1 [Compound I-47, {[(2S)-8-(2,6-Dichlorophenyl)-6-fluoro-2,3-dihydro-1,4-benzodioxin-2-yl]methyl}amine]
[1]
  Ki: < 50 nM
Human 5-HT2C receptor
  Emax: 60%
  EC50: < 100 nM

## C[C@]1(CN)COc2cccc(-c3ccccc3Cl)c2O1 [Compound I-49, {[(2S)-8-(2-Chlorophenyl)-2-methyl-2,3-dihydro-1,4-benzodioxin-2-yl]methyl}amine]
[1]
  Ki: < 50 nM
Human 5-HT2C receptor
  Emax: 70%
  EC50: > 500 nM

## NC[C@H]1COc2cccc(-c3ccccc3C(F)(F)F)c2O1 [Compound I-57, 1-{(2S)-8-[2-(trifluoromethyl)phenyl]-2,3-dihydro-1,4-benzodioxin-2-yl}methanamine]
[1]
  Ki: < 50 nM
Human 5-HT2C receptor
  Emax: 50%

## NC[C@H]1COc2cc(Cl)cc(-c3ccccc3Cl)c2O1 [Compound I-58, (2S)-[6-Chloro-8-(2-chloro-phenyl)-2,3-dihydro-benzo[1,4]dioxin-2-yl]-methylamine]
[1]
  Ki: < 50 nM
Human 5-HT2C receptor
  Emax: 50%
  EC50: < 100 nM

## NC[C@H]1COc2cc(Cl)cc(-c3ccccc3F)c2O1 [Compound I-59, (2S)-[6-Chloro-8-(2-fluoro-phenyl)-2,3-dihydro-benzo[1,4]dioxin-2-yl]-methylamine]
[1]
  Ki: < 50 nM
Human 5-HT2C receptor
  Emax: 40%
  EC50: 100 to 500 nM

## Cc1ccccc1-c1cc(Cl)cc2c1O[C@@H](CN)CO2 [Compound I-60, (2S)-[6-Chloro-8-(2-methyl-phenyl)-2,3-dihydro-benzo[1,4]dioxin-2-yl]-methylamine]
[1]
  Ki: < 50 nM
Human 5-HT2C receptor
  Emax: 50%
  EC50: 100 to 500 nM

## COc1ccccc1-c1cc(Cl)cc2c1O[C@@H](CN)CO2 [Compound I-61, (2S)-[6-Chloro-8-(2-methoxy-phenyl)-2,3-dihydro-benzo[1,4]dioxin-2-yl]-methylamine]
[1]
  Ki: < 50 nM
Human 5-HT2C receptor
  Emax: 50%
  EC50: 100 to 500 nM

## NC[C@H]1COc2cc(Cl)cc(-c3ccccc3C(F)(F)F)c2O1 [Compound I-62, (2S)-[6-Chloro-8-(2-trifluoromethyl-phenyl)-2,3-dihydro-benzo[1,4]dioxin-2-yl]-methylamine]
[1]
  Ki: < 50 nM
Human 5-HT2C receptor
  Emax: 60%
  EC50: 100 to 500 nM

## COc1cccc(-c2cc(Cl)cc3c2O[C@@H](CN)CO3)c1OC [Compound I-63, (2S)-[6-Chloro-8-(2,3-dimethoxy-phenyl)-2,3-dihydro-benzo[1,4]dioxin-2-yl]-methyl amine]
[1]
  Ki: < 50 nM
Human 5-HT2C receptor
  Emax: 50%
  EC50: > 500 nM

## NC[C@H]1COc2cc(Cl)cc(-c3ccc(Cl)cc3Cl)c2O1 [Compound I-64, (2S)-[6-Chloro-8-(2,4-dichloro-phenyl)-2,3-dihydro-benzo[1,4]dioxin-2-yl]-methyl amine]
[1]
  Ki: < 50 nM
Human 5-HT2C receptor
  Emax: 60%
  EC50: 100 to 500 nM

## NC[C@H]1COc2cc(Cl)cc(-c3cc(Cl)ccc3Cl)c2O1 [Compound I-67, (2S)-[6-Chloro-8-(2,5-dichloro-phenyl)-2,3-dihydro-benzo[1,4]dioxin-2-yl]-methyl amine]
[1]
  Ki: < 50 nM
Human 5-HT2C receptor
  Emax: 50%
  EC50: 100 to 500 nM

## Cc1cccc(C)c1-c1cc(Cl)cc2c1O[C@@H](CN)CO2 [Compound I-69, (2S)-[6-Chloro-8-(2,6-dimethyl-phenyl)-2,3-dihydro-benzo[1,4]dioxin-2-yl]-methyl amine]
[1]
  Ki: < 50 nM
Human 5-HT2C receptor
  Emax: 60%
  EC50: 100 to 500 nM

## NC[C@H]1COc2ccc(Cl)c(-c3ccccc3Cl)c2O1 [Compound I-70, (2S)-[7-Chloro-8-(2-chloro-phenyl)-2,3-dihydro-benzo[1,4]dioxin-2-yl]-methylamine]
[1]
  Ki: < 50 nM
Human 5-HT2C receptor
  Emax: 50%
  EC50: < 100 nM

## NC[C@H]1COc2ccc(F)c(-c3ccccc3Cl)c2O1 [Compound I-71, (2S)-[8-(2-Chloro-phenyl)-7-fluoro-2,3-dihydro-benzo[1,4]dioxin-2-yl]-methylamine]
[1]
  Ki: < 50 nM
Human 5-HT2C receptor
  Emax: 40%
  EC50: < 100 nM

## COc1ccccc1-c1cc(F)cc2c1OC(CN)O2 (stereo not drawn) [Compound I-76, 1-[6-Fluoro-4-(2-methoxyphenyl)-1,3-benzodioxol-2-yl]methanamine]
[1]
  Ki: < 50 nM
Human 5-HT2C receptor
  Emax: 70%
  EC50: < 100 nM

## Cc1ccccc1-c1cc(F)cc2c1OC(CN)O2 (stereo not drawn) [Compound I-80, 1-[4-(2-Methyl-phenyl)-6-fluoro-1,3-benzodioxol-2-yl]methanamine]
[1]
  Ki: < 50 nM
Human 5-HT2C receptor
  Emax: 90%
  EC50: < 100 nM

## NCC1Oc2cc(F)cc(-c3cc(Cl)ccc3Cl)c2O1 (stereo not drawn) [Compound I-81, 1-[4-(2,5-Dichloro-phenyl)-6-fluoro-1,3-benzodioxol-2-yl]methanamine]
[1]
  Ki: < 50 nM
Human 5-HT2C receptor
  Emax: 80%
  EC50: < 100 nM
